From patent US20110237633A1, “SMALL MOLECULE MODULATORS OF HEPATOCYTE GROWTH FACTOR (SCATTER FACTOR) ACTIVITY” (priority 2008, published 2011)

test system: LX2 cells (collagen I mRNA); assay: Antifibrotic activity: collagen I mRNA by real time PCR in LX2 hepatic stellate cells; format: cell-based, human; conditions: serum starved LX2 cells, 24 hours, HGF 100 ng/ml
Experimental: 2. Antifibrotic Activity of HGF and compounds of the invention in vitro and in vivo. The antifibrotic effects of HGF and compounds of the invention in the immortalized human hepatic stellate cell line LX2 are determined. Serum starved LX2 cells are treated for 24 hours with HGF at 100 ng/ml and compounds of the invention at doses ranging from 12 to 24 ug/ml. RNA is then isolated and real time PCR is performed to evaluate changes in collagen I mRNA. Results typically indicate a 90% and 70% decrease in collagen I mRNA expression in cells treated with instant compounds and HGF, respectively. Additional experiments to determine the effects of HGF and compounds on TGFb-1, bPDGF-R and MMP-1 mRNA are also performed to more completely characterize activities of these compounds which can contribute to their antifibrotic effects.

Row | Compound | decrease in collagen I mRNA expression [%]
1 | HGF: Scatter factor / hepatocyte growth factor, pleiotropic growth factor used as positive control | 70

test system: MDCK cells; assay: not given; conditions: not given

Row | Compound | cell viability after pretreatment, then adriamycin [%]
2 | HGF: Scatter factor / hepatocyte growth factor, pleiotropic growth factor used as positive control | 94

test system: Endothelial cells (HUVECs); assay: Assessment of HGF/SF-like activity: HUVEC proliferation (3H thymidine incorporation / Cell titer Glo); format: cell-based, human; conditions: test compounds 10 μM (or 0.01 to 25 micromolar), 24 hr; growth compared to 50 ng/mL HGF control
Experimental: 1. Assessment of HGF/SF-like activity: The following assay is performed to assess the HGF/SF-like activity of the compounds of the invention. Endothelial cells (HUVECs) are seeded in 48 well plates at a density of 10,000 to 20,000 cells per well in the normal growth medium (EGM-2-Clonetics) containing 2% fetal bovine serum, FGF, VEGF, IGF, ascorbic acid, EGF, GA, heparin and hydrocortisone. The cells are grown normally in the growth medium for 24 hr at 37° C. and 5% CO2. The cells are then rinsed with RPMI-1% BSA and are starved for 1-2 hrs. The stock solutions of the compounds of the invention are made at a concentration of 10 mg/ml in DMSO and are diluted in RPMI-1% BSA at a final concentrations of 0.01 micromolar to 25 micromolar. The cells are then washed and are treated with the compounds and are incubated for another 24 hr at 37° C. Then ^3H thymidine (0.5 microgram/ml in RPMI-BSA) is added to the cells and they are incubated at 37° C. for 4 to 5 hours. The unincorporated thymidine is removed by washing the cells four times with 1×PBS. Then the cells are lysed with 0.5M NaOH for 30 min and the radioactivity is counted in the beta counter. A similar proliferation assay using monkey bronchial epithelial cells (4 MBR-5) is also employed.
In another assay format, HUVEC cells were grown in EGM-2 medium (Lonza) with 5% FBS to 80% confluence at 37° C. and in 5% CO2. Cells were plated in a white opaque flat bottom 96 well plate at a density of 10000 cells per well and in a volume of 100 μL, and incubated overnight and starved by washing twice in serum-free EGM-2 media. After 2 hours, cells were treated with 100 μL EGM-2 medium containing 10 μM test compounds and incubated for an additional 24 hours at 37° C. (All compounds were in DMSO and the final concentration of DMSO in the assay was 0.1%). In all experiments, serum (5%) and HGF (50 ng/mL final) were run as positive controls and DMSO vehicle was run as a negative control. 10 μL Cell titer Glo reagent (Promega) was added to each well and plates were mixed by gentle tapping. After 10 minutes at room temperature, plates were read on a Packard Top Count Luminescence plate reader. Proliferation was expressed as a percentage of growth compared to 50 ng/mL HGF control, with the DMSO control representing 0% growth and the HGF control representing 100% growth.

Row | Compound | HGF/SF-like activity (HUVEC proliferation)
3 | C(=Cc1cccs1)c1ccc[nH]1 [2-(2-(thiophen-2-yl)vinyl)-1H-pyrrole] | active
4 | C(=Cc1nnn[nH]1)c1ccccc1 [5-styryl-1H-tetrazole] | active
5 | Nc1ccc(C=Cc2nc3cc(N)ccc3[nH]2)cc1 [2-(4-aminostyryl)-1H-benzo[d]imidazol-5-amine] | active
6 | c1ccc2cc(-c3cnc[nH]3)ccc2c1 [5-(naphthalen-2-yl)-1H-imidazole] | active
7 | CS(=O)(=O)Nc1ccc(-c2ccc3nc[nH]c3c2)cc1 [N-(4-(1H-benzo[d]imidazol-6-yl)phenyl)methanesulfonamide] | active
8 | C(=Cc1cnc[nH]1)c1ccccc1 [5-styryl-1H-imidazole] | active
9 | CSc1nnc(C=Cc2cccs2)[nH]1 [3-(methylthio)-5-(2-(thiophen-2-yl)vinyl)-4H-1,2,4-triazole] | active
10 | Nc1nnc(C=Cc2ccccc2)[nH]1 [5-styryl-4H-1,2,4-triazol-3-amine] | active
11 | C(=Cc1ncc[nH]1)c1ccccc1 [2-styryl-1H-imidazole] | active
12 | c1ccc2cc(-c3nnn[nH]3)ccc2c1 [5-(naphthalen-2-yl)-1H-tetrazole] | active
13 | CC(C)N1CC(c2nc(-c3ccc4ccccc4c3)c[nH]2)CC1=O (centres unmarked) [1-isopropyl-4-(4-(naphthalen-2-yl)-1H-imidazol-2-yl)pyrrolidin-2-one] | active
14 | c1csc(-c2ccc3cn[nH]c3c2)c1 [6-(thiophen-2-yl)-1H-indazole] | active
15 | c1coc(-c2ccc3cn[nH]c3c2)c1 [6-(furan-2-yl)-1H-indazole] | active
16 | CCn1c(C)nc2cc(-c3ccccc3)ccc21 [1-ethyl-2-methyl-5-phenyl-1H-benzo[d]imidazole] | active
17 | c1cc(-c2ccc3cn[nH]c3c2)co1 [6-(furan-3-yl)-1H-indazole] | active
18 | c1cc(-c2ccc3cn[nH]c3c2)cs1 [6-(thiophen-3-yl)-1H-indazole] | active
19 | c1ccc2cc(-c3ncc[nH]3)ccc2c1 [2-(naphthalen-2-yl)-1H-imidazole] | active

test system: not listed separately; assay: MTT cell viability assay, protection from adriamycin-induced apoptosis; conditions: dog, MDCK cells
Experimental: Using the MTT cell viability assay the ability of compounds of the invention to protect cells from adriamycin-induced apoptosis is tested.

Row | Compound | viability [%]
20 | COc1cccc2c1C(=O)c1c(O)c3c(c(O)c1C2=O)C[C@@](O)(C(=O)CO)C[C@@H]3O[C@H]1C[C@H](N)[C@H](O)[C@H](C)O1 [Adriamycin, adriamycin] | 56
